Reference: patent publication US12473283B2, “Compounds and their use” (Debiopharm International S.A., priority 2019, dated 2025)

Assays:
K. pneumoniae A6030827 = test: Broth microdilution MIC assay; format: cell-based; details: Klebsiella pneumoniae, CA-MHB, 35° C., 20 hours
E. coli AG100 = test: Broth microdilution MIC assay; format: cell-based; details: Escherichia coli, CA-MHB, 35° C., 20 hours
S. aureus ATCC 29213 = test: Broth microdilution MIC assay; format: cell-based; details: Staphylococcus aureus, ATCC29213; CA-MHB, 35° C., 20 hours
[1] = tested on: A. baumannii ATCC BAA1605; test: Broth microdilution MIC assay; format: cell-based; details: Acinetobacter baumannii, ATCCBAA1605; CA-MHB, 35° C., 20 hours
[2] = tested on: Acinetobacter baumannii ATCC 17978; test: Mouse thigh infection model; format: in vivo, BALB/c mice; details: for Mean Log CFU/g thigh 72 hr: 72 hr treatment
Protocol: Groups of 5 female specific-pathogen-free BALB/c mice weighing 18±2 g were used. In the 24 hr model (bacterial counts determined 24 hr after treatment start), mice were rendered neutropenic with cyclophosphamide intraperitoneal (IP) administration conducted at Days −4 (150 mg/kg), and day −1 (100 mg/kg). In the 72 hr model (bacterial counts determined 72 hr after treatment start), animals were rendered persistently neutropenic for the duration of the infection period with cyclophosphamide intraperitoneal (IP) administration conducted at Days −4 (150 mg/kg), −1 (100 mg/kg) and +1 (100 mg/kg). Persistent neutropenia is required to prevent pathogen clearance from thigh tissue in the 74 hr model. Nutritional supplementation (diet gel) plus saline SC injections were provided daily to help animals tolerate the cyclophosphamide treatment.
(§1) On day 0, animals were inoculated intramuscularly (0.1 ml/thigh) with a 1.67×10^4 inoculum count of Acinetobacter baumannii ATCC 17978. Vehicle control (40% Captisol), positive control (tigecycline) or test substances were then administered 2 hr post infection by the subcutaneous (SC) route of administration. Each dosing group consisted of 5 female mice. The MICs of the compounds against the test strain were 8 μg/ml, 2 μg/ml and […] for compound 201, compound 71 and compound 200, respectively. At 26 or 74 hours after inoculation (24 or 72 hr after treatment initiation), animals were euthanized with CO2 asphyxiation and the thigh tissue harvested from each of the test animals. The tissues were homogenized in 3 mL of PBS, pH 7.4 with a homogenizer. Homogenates, 0.1 mL, were used for serial 10-fold dilutions and plated onto NB agar for colony counts. Efficacy is calculated as the change in log CFU/g thigh vs. the time 0 (treatment initiation) control.

[3] = tested on: Acinetobacter baumannii ATCC 17978; test: MIC against the in vivo test strain; format: cell-based; details: Acinetobacter baumannii, ATCC17978; A. baumannii ATCC 17978
Protocol: The antibacterial activity of FabI inhibitors against select Gram-negative and Gram-positive bacterial species including susceptible and multi-drug resistant A. baumannii, E. coli, K. pneumoniae and S. aureus was tested using the broth microdilution Minimal Inhibitory Concentration (MIC) assay following CLSI guidelines for insoluble compounds. Test articles were serially diluted 2-fold in 100% dimethyl sulfoxide (DMSO) and then diluted 100-fold into cation adjusted Mueller-Hinton broth (CA-MHB) to achieve a 10-point test concentration range in 1% DMSO. Final compound concentrations were 0.016-8 μg/ml for S. aureus or 0.06-32 μg/ml for the Gram-negative species. MIC test plates were then prepared by transferring 100 μl of the final assay medium (test article in CA-MHB, 1% DMSO) into the appropriate wells of a sterile, low binding 96-well polystyrene plate. Direct colony suspension inoculums of the test strains were freshly prepared per CLSI guidelines, and the appropriate test wells were inoculated to achieve a final bacterial cell density of 5×10^5 CFU/ml. Growth control (no test article) and negative control (no bacterial inoculum) wells were also included. Exposure to light was minimized during all stages of assay preparation. […] Bacterial growth was then determined by measuring the optical density at 600 nm (OD600) using a SpectraMax Plus plate-reader spectrophotometer.
as §1
On day 0, animals were anesthetized with etomidate-lipuro emulsion (20 mg/10 mL; 20 mg/kg dose, IV) and then inoculated intranasally with an A. baumannil ATCC 17978 suspension, 1.36×10^5 CFU/mouse, 0.02 mL/mouse. […] Efficacy is calculated as the change in log CFU/g thigh vs. the time 0 (treatment initiation) control.

For Cc1c(CN(C)C(=O)/C=C/c2cnc3c(c2)CC[C@H](N)C(=O)N3)oc2ccccc12.Cl (single isomer, unassigned) [Compound 71], the MIC (K. pneumoniae A6030827) was ≤ 4 µg/mL, the MIC (E. coli AG100) was ≤ 4 µg/mL and the MIC (S. aureus ATCC 29213) was ≤ 4 µg/mL. For the same compound, the MIC [1] was ≤ 4 µg/mL, the “Mean Change log CFU/g thigh 72 hr” value ([2]; 25 mg/kg q6h SC, vs. time 0 control) was 2.25 log CFU/g thigh and the “Mean Log CFU/g thigh 72 hr” value ([2]; 25 mg/kg q6h SC, total daily dose 100 mg/kg) was 7.09 log CFU/g thigh. For the same compound, the “Mean Change log CFU/g thigh 24 hr” value ([2]; 50 mg/kg q6h SC, 24 hr, vs. time 0 control) was 0.60 log CFU/g thigh, the “Mean Change log CFU/g thigh 72 hr” value ([2]; 50 mg/kg q6h SC, vs. time 0 control) was 1.10 log CFU/g thigh and the “Mean Log CFU/g thigh 24 hr” value ([2]; 50 mg/kg q6h SC, total daily dose 200 mg/kg, 24 hr treatment) was 5.45 log CFU/g thigh. For the same compound, the “Mean Log CFU/g thigh 72 hr” value ([2]; 50 mg/kg q6h SC, total daily dose 200 mg/kg) was 5.95 log CFU/g thigh, the “efficacy in words, thigh model summary” value ([2]; SC, 24 hr and 72 hr treatment) was “very slight efficacy” and the MIC [3] was 2 µg/mL.
